Reference: US6204293A, “Inhibitors of protein isoprenyl transferases” (University of Pittsburgh, priority 1998, dated 2001)
Where a name gives a salt, the structure may show the parent alone.

target: T1, Rat brain protein farnesyltransferase (Rattus norvegicus, UniProt Q02293+Q04631); assay: % inhibition of farnesylation, scintillation proximity assay with biotin-K Ras B fragment; assay type: biochemical; details: Table 1; 1 × 10^-5 M
T1 construct: Rat brain protein farnesyltransferase activity is measured; from tissue; host or cells: rat brain
T1 sequence (Q02293 whole entry, the tested form may be a part, one chain of several): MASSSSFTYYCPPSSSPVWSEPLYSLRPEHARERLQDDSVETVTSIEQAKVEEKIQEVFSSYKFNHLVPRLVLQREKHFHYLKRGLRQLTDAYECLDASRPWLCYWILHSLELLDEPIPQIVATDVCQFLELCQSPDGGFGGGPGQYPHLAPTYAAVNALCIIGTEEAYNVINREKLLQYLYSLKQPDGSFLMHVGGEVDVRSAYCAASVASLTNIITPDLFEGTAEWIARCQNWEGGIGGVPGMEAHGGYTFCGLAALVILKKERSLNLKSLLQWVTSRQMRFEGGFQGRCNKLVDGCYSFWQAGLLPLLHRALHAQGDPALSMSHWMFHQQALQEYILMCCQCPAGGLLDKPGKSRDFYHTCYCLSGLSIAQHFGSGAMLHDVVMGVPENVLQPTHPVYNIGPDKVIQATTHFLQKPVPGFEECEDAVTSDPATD
Summary of the method: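 Scintillation proximity read-out of farnesylation, using a biotinylated K Ras B fragment (0.1 mM final) in place of biotin-lamin. Enzyme purified from rat brain; results given as % inhibition.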

| SMILES | % inhibition at 1 × 10^-5 M |
| --- | --- |
| CSCC[C@H](NC(=O)c1ccc(CNc2cccc(CCC(=O)O)c2)cc1-c1ccccc1)C(=O)O [Example 685] | 55% |
| CSCC[C@H](NC(=O)c1ccc(CNc2cc(C)cc(C)c2)cc1-c1ccccc1)C(=O)O [Example 709] | 55% |
| CCN(Cc1ccc(C(=O)N[C@@H](CCSC)C(=O)O)c(-c2ccccc2)c1)Cc1cc([N+](=O)[O-])ccc1O [Example 711] | 46% |
| CSCC[C@H](NC(=O)c1ccc(CNCC(C)(C)CN(C)C)cc1-c1ccccc1)C(=O)O [Example 639] | 44% |
| CSCC[C@H](NC(=O)c1ccc(CNCCc2cccs2)cc1-c1ccccc1)C(=O)O [Example 369] | 87% |
| CSCC[C@H](NC(=O)c1ccc(CNc2cccc(CC(=O)O)c2)cc1-c1ccccc1)C(=O)O [Example 684] | 48% |
| CSCC[C@H](NC(=O)c1ccc(CNc2nnc(C)s2)cc1-c1ccccc1)C(=O)O [Example 371] | 66% |

same assay, conditions: Table 2; 1 × 10^-6 M

| SMILES | % inhibition at 1 × 10^-6 M |
| --- | --- |
| CSCC[C@H](NC(=O)c1ccc(/C=C/c2cnccn2)cc1-c1ccccc1C)C(=O)O [Example 495] | 95% |
| CSCC[C@H](NC(=O)c1ccc(CNc2ccc(N3CCCCC3)cc2)cc1-c1ccccc1)C(=O)O [Example 697] | 39% |
| CSCC[C@H](NC(=O)c1ccc(CN(Cc2ccccc2)Cc2cccc(Oc3ccccc3)c2)cc1-c1ccccc1C)C(=O)O [Example 514] | 94% |
| CSCC[C@H](NC(=O)c1ccc(CC(Cc2ccccc2)c2ccccc2)cc1-c1ccccc1C)C(=O)[O-].[Li+] (stereo partly drawn) [Example 572] | 91% |
| Cc1ccccc1-c1cc(CN(C2CC2)C(C)(C)Cc2ccccc2)ccc1C(=O)N[C@@H](CCS(C)(=O)=O)C(=O)O [Example 319] | 98% |
| CSCC[C@H](NC(=O)c1ccc(CNc2ccc(S(=O)(=O)Nc3onc(C)c3C)cc2)cc1-c1ccccc1C)C(=O)O [Example 726] | 81% |
| CSCC[C@H](NC(=O)c1ccc(CN(C2CC2)C(C)(C)CC2CCCCC2)cc1-c1ccccc1C)C(=O)O [Example 316] | 63% |
| CCSC[C@H](CC1CCCCC1)NCc1ccc(C(=O)N(C)[C@@H](CCSC)C(=O)O)c(-c2ccccc2C)c1 [Example 765] | 76% |
| CSCC[C@H](NC(=O)c1ccc(C=Cc2ccccc2Oc2ccccc2)cc1-c1ccccc1C)C(=O)[O-].[Li+] [Example 453] | 90% |
| CSCC[C@H](NC(=O)c1ccc(CNCc2ccc(N)cc2)cc1-c1ccccc1)C(=O)O [Example 653] | 62% |
| CSCCC(NC(=O)c1ccc(CNC(CO)c2ccccc2)cc1-c1ccccc1)C(=O)O (stereo not drawn) [Example 657] | 32% |
| CSCC[C@H](NC(=O)c1ccc(/C=C/c2cnc(Oc3ccccc3)cn2)cc1-c1ccccc1C)C(=O)O [Example 812] | 94% |
| CSCC[C@H](NC(=O)c1ccc(CNc2ccc(OC(F)(F)F)cc2)cc1-c1ccccc1)C(=O)O [Example 691] | 34% |
| CSCC[C@H](NC(=O)c1ccc(CNC(CC2CCCCC2)C(O)C(O)CC(C)C)cc1-c1ccccc1C)C(=O)O (stereo partly drawn) [Example 528] | 99% |
| CSCC[C@H](NC(=O)c1ccc(CN(C2CC2)C(C)(C)Cc2ccccc2)cc1-c1ccccc1C)C(=O)O [Example 315] | 93% |

same assay, conditions: Table 3; 1 × 10^-7 M

| SMILES | % inhibition at 1 × 10^-7 M |
| --- | --- |
| CSCC[C@H](NC(=O)c1ccc(C=Cc2cncs2)cc1-c1ccccc1C)C(=O)[O-].[Li+] [Example 785] | 96% |
| CCCCN(CCCC)Cc1ccc(C(=O)N[C@@H](CCSC)C(=O)O)c(-c2ccccc2C)c1 [Example 917] | 78% |
| CCSC[C@H](CC1CCCCC1)N(Cc1ccc(C(=O)N[C@@H](CCSC)C(=O)O)c(-c2ccccc2C)c1)C(=O)OC(C)(C)C [Example 948] | 75% |

same assay, conditions: Table 4; 1 × 10^-8 M

| SMILES | % inhibition at 1 × 10^-8 M |
| --- | --- |
| CSCC[C@H](NC(=O)c1ccc(CN(Cc2ccccc2)c2cccc(SC)c2)cc1-c1ccccc1C)C(=O)[O-].[Li+] [Example 851] | 82% |
| COc1ccc(N(Cc2ccccc2)Cc2ccc(C(=O)N[C@@H](CCSC)C(=O)O)c(-c3ccccc3C)c2)cc1 [Example 840] | 73% |
| CSCC[C@H](NC(=O)c1ccc(CN(Cc2ccccc2)c2ccc(Cl)cc2)cc1-c1ccccc1C)C(=O)O [Example 848] | 87% |
| CSCC[C@H](NC(=O)c1ccc(CN(CCC2CCCCC2)C(=O)c2ccccc2)cc1-c1ccccc1C)C(=O)O [Example 762] | 84% |
| CCCCS(=O)(=O)N(CCCc1ccccc1)Cc1ccc(C(=O)N[C@@H](CCSC)C(=O)O)c(-c2ccccc2C)c1 [Example 927] | 74% |

same assay, conditions: read-out: % inhibition at 0.1 μM (*); Table 6; * footnote 0.1 μM (title: 0.1 mM)

| SMILES | inhibition at 0.1 µM |
| --- | --- |
| CSCC[C@H](NC(=O)c1ccc(COCc2cccc(CO)c2)cc1-c1ccccc1C)C(=O)O [Example 1044, N-[4-(3-hydroxymethylbenzyloxymethyl)-2-(2-methylphenyl)benzoyl]methionine,lithium salt] | 76% |
| CSCC[C@H](NC(=O)c1ccc(COC[C@@H](O)CC2CCCCC2)cc1-c1ccccc1C)C(=O)O [Example 1314, N-[4-(3-Cyclohexyl-2-hydroxyprop-1-yloxymethyl)-2-(2-methylphenyl)benzoyl]methionine Lithium Salt] | 96% |

same assay, conditions: read-out: % inhibition at 1 × 10^-6 M

| SMILES | inhibition at 1 µM |
| --- | --- |
| CSCC[C@H](NC(=O)c1ccc(COCc2ccc3ccccc3c2)cc1-c1ccccc1C)C(=O)O [Example 583, N-[4-(naphth-2-ylmethoxymethyl)-2-(2-methylphenyl)benzoyl]methionine lithium salt] | 98% |
| CSCC[C@H](NC(=O)c1ccc(COCc2ccc(-c3ccc(F)cc3)o2)cc1-c1cccc2ccccc12)C(=O)O [Example 868, N-[4-(5-(4-fluorophenyl)furan-2-ylmethoxymethyl)-2-naphth-1-ylbenzoyl]methionine lithium salt] | 89% |

same assay, conditions: read-out: % inhibition at 1 × 10^-6 M; Table 2; 1 × 10^-6 M

| SMILES | inhibition at 1 µM |
| --- | --- |
| CSCC[C@H](NC(=O)c1ccc(OCCC23CC4CC(CC(C4)C2)C3)cc1-c1ccccc1C)C(=O)O [Example 553, N-[4-(2-adamantan-1-ylethoxy)-2-(2-methylphenyl)benzoyl]methionine] | 92% |
| CSCC[C@H](NC(=O)c1ccc(COCC(CC2CCCCC2)CC2CCCCC2)cc1-c1ccccc1C)C(=O)O [Example 889, lithium salt] | 95% |

same assay, conditions: read-out: % inhibition at 1 × 10^-7 M

| SMILES | inhibition at 0.1 µM |
| --- | --- |
| CSCC[C@H](NC(=O)c1ccc(COCCc2ccco2)cc1-c1ccccc1C)C(=O)O [Example 531, N-[4-(2-furan-2-ylethoxymethyl)-2-(2-methylphenyl)benzoyl]methionine lithium salt] | 74% |
| CSCC[C@H](NC(=O)c1ccc(COCCc2ccc(Cl)cc2)cc1-c1ccccc1C)C(=O)O [Example 590, N-[4-(2-(4-chlorophenyl)ethoxymethyl)-2-(2-methylphenyl)benzoyl]methionine lithium salt] | 95% |
| CSCC[C@H](NC(=O)c1ccc(COCc2cnco2)cc1-c1ccccc1C)C(=O)O [Example 891, N-[4-(oxazol-5-ylmethoxymethyl)-2-(2-methylphenyl)benzoyl]methionine lithium salt] | 94% |
| COc1cccc(-c2ccc(COCc3ccc(C(=O)N[C@@H](CCSC)C(=O)O)c(-c4ccccc4C)c3)o2)c1 [Example 442, N-[4-(5-(3-methoxyphenyl)furan-2-ylmethoxymethyl)-2-(2-methylphenyl)benzoyl]methionine lithium salt] | 88% |
| CSCC[C@H](NC(=O)c1ccc(COCCC2CCCCC2)cc1-c1ccccc1C)C(=O)O [Example 594, N-[4-(2-cyclohexylethoxymethyl)-2-(2-methylphenyl)benzoyl]methionine lithium salt] | 95% |
| CSCC[C@H](NC(=O)c1ccc(COC(Cc2ccccc2)Cc2ccccc2)cc1-c1ccccc1C)C(=O)O [Example 522, N-[4-(1,3-diphenylpropan-2-yl)oxymethyl-2-(2-methylphenyl)benzoyl]methionine lithium salt] | 93% |
| CSCC[C@H](NC(=O)c1ccc(CSCC2CCCCC2)cc1-c1ccccc1C)C(=O)O [Example 559, N-[4-cyclohexylmethylthiomethyl-2-(2-methylphenyl)benzoyl]methionine, lithium salt] | 96% |

same assay, conditions: read-out: % inhibition at 1 × 10^-7 M; Table 3; 1 × 10^-7 M

| SMILES | inhibition at 0.1 µM |
| --- | --- |
| CSCC[C@H](NC(=O)c1ccc(COCc2ccccc2)cc1-c1ccccc1C)C(=O)NS(=O)(=O)c1ccccc1 [Example 580, Benzenesulfonyl N-2-[4-(benzyloxymethyl)-2-(2-methylphenyl)benzoyl]amino-4-methylthiobutanamide] | 90% |
| CSCC[C@H](NC(=O)c1ccc(COCc2ccc(-c3ccc(F)c(Cl)c3)o2)cc1-c1ccccc1C)C(=O)O [Example 450, N-[4-(5-(3-chloro-4-fluorophenyl)furan-2-ylmethoxymethyl)-2-(2-methylphenyl)benzoyl]methionine lithium salt] | 96% |

same assay, conditions: read-out: % inhibition at 1 × 10^-8 M

| SMILES | inhibition at 0.01 µM |
| --- | --- |
| CSCC[C@H](NC(=O)c1ccc(COCc2ccccc2Cl)cc1-c1ccccc1C)C(=O)O [Example 930, N-[4-(2-chlorobenzyloxymethyl)-2-(2-methylphenyl)benzoyl]methionine lithium salt] | 66% |

same assay, conditions: read-out: % inhibition at 1 × 10^-8 M; Table 4; 1 × 10^-8 M

| SMILES | inhibition at 0.01 µM |
| --- | --- |
| CSCC[C@H](NC(=O)c1ccc(CO[C@H](CSC)CC2CCCCC2)cc1-c1ccccc1C)C(=O)O [Example 882, N-[4-(3-Cyclohexyl-1-methylthiopropan-2-yl)oxymethyl-2-(2-methylphenyl)benzoyl]methionine lithium salt] | 79% |
| CCSC[C@H](CC1CCCCC1)OCc1ccc(C(=O)N[C@@H](CCSC)C(=O)O)c(-c2ccccc2C)c1 [Example 606, Lithium Salt] | 93% |
